Test results published in patent US20030104507A1, “Method for detection of ATP” (priority 2001, published 2003).

What was measured:
[1] = tested on: LucPpe2m146; test: Stability of reagent composition with LucPpe2m146 and detergent (RT, pH 7.0); type: biochemical, Photuris pennsylvanica
Text: (§1) The detergents used for inhibition of endogenous ATPase activity in a sample also affect activity of luciferase. […] It is ultimately the extended stability of a reagent composition, comprising an ATPase inhibitor and a luciferase enzyme, which provides a composition useful for measuring ATP, in a sample or samples, over an extended period of time.
(§2) In this experiment, the stability of a reagent composition comprising wild type LucPpy was compared to the stability of a reagent composition comprising LucPpe2m146 at about 23° C. (room temperature). The various reagent compositions had varying detergent concentrations.
(§3) Two solutions were created as listed below. One contained the luciferase, luciferin, MgSO4, and buffer (reagent composition). The other solution contained media plus ATP (media solution).
(§4) 50 μg/ml enzyme (LucPpy is Promega catalog #E170A)
(§5) Detergent (at various concentrations, see table below)
(§6) For each reagent composition, all ingredients except the luciferase enzyme were assembled; the enzyme was then added immediately before the first luminescence reading was taken. Immediately after addition of enzyme to each reagent composition and for various timepoints thereafter, 100 μl aliquots of the reagent composition were added to wells of a 96-well microtitre luminometer plate in triplicate. To these were added 100 μl Media Solution containing the ATP. Luminescence was then immediately read on a Dynex MLX microtitreplate luminometer, 0.5 second reads per well. The average relative light unit values as well as the reaction half lives are listed below in Table I and the percent of original luminescence remaining at each timepoint is listed in Table J below. The timepoint at the top of the column indicates the time at which the first rlu measurement for the samples in that column was read. […] Times listed in Table I are the same for Table J. The values for sulfobetaine and for CTAB were generated on different days, they are presented with the control values generated in the same experiment.

[2] = biological target: T1, LucPpy (Photinus pyralis, UniProt P08659); test: Stability of reagent composition with LucPpy and detergent (RT, pH 7.0); type: biochemical; conditions: for Half-life of Luminescence Activity: Common firefly luciferase (P. pyralis); for Average Relative Light Units / Percent of Luminescence Remaining: LucPpy
T1 construct: purchased Promega E170A
Text: as §1, §2, §3, §4, §5, §6

CCCCCCCCCCCC[N+](C)(C)Cc1ccccc1.[Br-] [BDDABr, Benzyldimethyldodecylammonium bromide]
Average Relative Light Units ([1]; LucPpe2m146, 0.02%, 1.0 min (head r67)): 26548.60 rlu
Percent of Luminescence Remaining ([1]; LucPpe2m146, 0.02%, 1.0 min (times of Table I r67)): 100.00%
Average Relative Light Units ([1]; LucPpe2m146, 0.02%, 34 min (head r67)): 26272.87 rlu
Percent of Luminescence Remaining ([1]; LucPpe2m146, 0.02%, 34 min (times of Table I r67)): 98.96%
Average Relative Light Units ([1]; LucPpe2m146, 0.02%, 65 min (head r67)): 25766.43 rlu
Percent of Luminescence Remaining ([1]; LucPpe2m146, 0.02%, 65 min (times of Table I r67)): 97.05%
Average Relative Light Units ([1]; LucPpe2m146, 0.02%, 115 min (head r67)): 24155.00 rlu
Percent of Luminescence Remaining ([1]; LucPpe2m146, 0.02%, 115 min (times of Table I r67)): 90.98%
Average Relative Light Units ([1]; LucPpe2m146, 0.02%, 175 min (head r67)): 25891.70 rlu
Percent of Luminescence Remaining ([1]; LucPpe2m146, 0.02%, 175 min (times of Table I r67)): 97.53%
Average Relative Light Units ([1]; LucPpe2m146, 0.02%, 238 min (head r67)): 24959.1 rlu
Percent of Luminescence Remaining ([1]; LucPpe2m146, 0.02%, 238 min (times of Table I r67)): 94.01%
Average Relative Light Units ([1]; LucPpe2m146, 0.02%, 286 min (head r67)): 24510.1 rlu
Percent of Luminescence Remaining ([1]; LucPpe2m146, 0.02%, 286 min (times of Table I r67)): 92.32%
Average Relative Light Units ([1]; LucPpe2m146, 0.1%, 1.0 min (head r54)): 29.71 rlu
Percent of Luminescence Remaining ([1]; LucPpe2m146, 0.1%, 1.0 min (times of Table I r54)): 100.00%
Average Relative Light Units ([1]; LucPpe2m146, 0.1%, 34 min (head r54)): 66.09 rlu
Percent of Luminescence Remaining ([1]; LucPpe2m146, 0.1%, 34 min (times of Table I r54)): 222.47%
Average Relative Light Units ([1]; LucPpe2m146, 0.1%, 65 min (head r54)): 62.19 rlu
Percent of Luminescence Remaining ([1]; LucPpe2m146, 0.1%, 65 min (times of Table I r54)): 209.32%
Average Relative Light Units ([1]; LucPpe2m146, 0.1%, 115 min (head r54)): 45.18 rlu
Percent of Luminescence Remaining ([1]; LucPpe2m146, 0.1%, 115 min (times of Table I r54)): 152.09%
Average Relative Light Units ([1]; LucPpe2m146, 0.1%, 175 min (head r54)): 33.89 rlu
Percent of Luminescence Remaining ([1]; LucPpe2m146, 0.1%, 175 min (times of Table I r54)): 114.06%
Average Relative Light Units ([1]; LucPpe2m146, 0.1%, 238 min (head r54)): 34.46 rlu
Percent of Luminescence Remaining ([1]; LucPpe2m146, 0.1%, 238 min (times of Table I r54)): 115.98%
Average Relative Light Units ([1]; LucPpe2m146, 0.1%, 286 min (head r54)): 126.90 rlu
Percent of Luminescence Remaining ([1]; LucPpe2m146, 0.1%, 286 min (times of Table I r54)): 427.13%
Average Relative Light Units ([1]; LucPpe2m146, 0.5%, 15 min (head r41)): 2.040 rlu
Percent of Luminescence Remaining ([1]; LucPpe2m146, 0.5%, 15 min (times of Table I r41)): 100.00%
Average Relative Light Units ([1]; LucPpe2m146, 0.5%, 72 min (head r41)): 1.140 rlu
Percent of Luminescence Remaining ([1]; LucPpe2m146, 0.5%, 72 min (times of Table I r41)): 55.90%
Average Relative Light Units ([1]; LucPpe2m146, 0.5%, 124 min (head r41)): 0.998 rlu
Percent of Luminescence Remaining ([1]; LucPpe2m146, 0.5%, 124 min (times of Table I r41)): 48.93%
Average Relative Light Units ([1]; LucPpe2m146, 0.5%, 190 min (head r41)): 0.899 rlu
Percent of Luminescence Remaining ([1]; LucPpe2m146, 0.5%, 190 min (times of Table I r41)): 44.07%
Average Relative Light Units ([1]; LucPpe2m146, 0.5%, 251 min (head r41)): 1.042 rlu
Percent of Luminescence Remaining ([1]; LucPpe2m146, 0.5%, 251 min (times of Table I r41)): 51.10%
Half-life of Luminescence Activity ([2]; conc. 0.100): no activity
Half-life of Luminescence Activity ([2]; conc. 0.500): no activity
Average Relative Light Units ([2]; 0.02%, 0.75 min (head r32)): 2894.700 rlu
Percent of Luminescence Remaining ([2]; 0.02%, 0.75 min (times of Table I r32)): 100.00%
Average Relative Light Units ([2]; 0.02%, 38 min (head r32)): 0.035 rlu
Percent of Luminescence Remaining ([2]; 0.02%, 38 min (times of Table I r32)): 0.00%
Average Relative Light Units ([2]; 0.02%, 70 min (head r32)): 0.015 rlu
Percent of Luminescence Remaining ([2]; 0.02%, 70 min (times of Table I r32)): 0.00%
Average Relative Light Units ([2]; 0.02%, 94 min (head r32)): 0.016 rlu
Average Relative Light Units ([2]; 0.02%, 122 min (head r32)): 0.011 rlu
Average Relative Light Units ([2]; 0.1%, 0.75 min (head r18)): 0.007 rlu
Percent of Luminescence Remaining ([2]; 0.1%, 0.75 min (times of Table I r18)): 100.00%
Average Relative Light Units ([2]; 0.5%, 0.75 min (head r5)): 0.001 rlu
Percent of Luminescence Remaining ([2]; 0.5%, 0.75 min (times of Table I r5)): 100.00%
